ChEMBL document CHEMBL1134097, “Cyclooxygenase-inhibitory and antioxidant constituents of the aerial parts of Antirhea acutata” (Bioorg Med Chem Lett, 2001)

What was measured:
[1] = biological target: T1, Prostaglandin G/H synthase 2 (Homo sapiens, UniProt P35354); test: Inhibitory concentration against Prostaglandin G/H synthase 2
T1 sequence (P35354 whole entry): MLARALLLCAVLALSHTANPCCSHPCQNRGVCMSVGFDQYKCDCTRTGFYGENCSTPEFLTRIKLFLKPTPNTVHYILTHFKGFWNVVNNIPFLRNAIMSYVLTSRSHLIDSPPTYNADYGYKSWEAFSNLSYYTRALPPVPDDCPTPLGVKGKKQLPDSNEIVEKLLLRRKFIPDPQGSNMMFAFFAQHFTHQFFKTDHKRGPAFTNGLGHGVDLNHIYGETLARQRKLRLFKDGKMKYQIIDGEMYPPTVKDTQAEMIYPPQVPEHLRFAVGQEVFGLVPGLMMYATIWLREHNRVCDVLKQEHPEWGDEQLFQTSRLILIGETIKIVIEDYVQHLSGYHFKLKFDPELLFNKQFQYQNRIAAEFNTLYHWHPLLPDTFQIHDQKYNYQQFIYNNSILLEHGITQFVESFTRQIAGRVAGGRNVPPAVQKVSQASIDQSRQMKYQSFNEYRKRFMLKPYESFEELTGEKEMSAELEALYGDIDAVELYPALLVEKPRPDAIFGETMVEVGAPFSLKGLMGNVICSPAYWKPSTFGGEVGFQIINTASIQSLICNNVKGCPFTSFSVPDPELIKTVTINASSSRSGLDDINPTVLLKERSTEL

[2] = biological target: T2, Prostaglandin G/H synthase 1 (Homo sapiens, UniProt P23219); test: Inhibitory concentration against Prostaglandin G/H synthase 1
[3] = biological target: T1, Prostaglandin G/H synthase 2; test: Activity against Prostaglandin G/H synthase 2 at > 70 ug/mL; inactive
[4] = biological target: T2, Prostaglandin G/H synthase 1; test: Activity against Prostaglandin G/H synthase 1 at > 70 ug/mL; inactive
[5] = Activity determined by 1,1-diphenyl-2-picrylhydrazyl (DPPH) free radical antioxidant assay; format: functional
[6] = Activity determined by cytochrome c reduction antioxidant assay; format: functional

T2 sequence (P23219 whole entry): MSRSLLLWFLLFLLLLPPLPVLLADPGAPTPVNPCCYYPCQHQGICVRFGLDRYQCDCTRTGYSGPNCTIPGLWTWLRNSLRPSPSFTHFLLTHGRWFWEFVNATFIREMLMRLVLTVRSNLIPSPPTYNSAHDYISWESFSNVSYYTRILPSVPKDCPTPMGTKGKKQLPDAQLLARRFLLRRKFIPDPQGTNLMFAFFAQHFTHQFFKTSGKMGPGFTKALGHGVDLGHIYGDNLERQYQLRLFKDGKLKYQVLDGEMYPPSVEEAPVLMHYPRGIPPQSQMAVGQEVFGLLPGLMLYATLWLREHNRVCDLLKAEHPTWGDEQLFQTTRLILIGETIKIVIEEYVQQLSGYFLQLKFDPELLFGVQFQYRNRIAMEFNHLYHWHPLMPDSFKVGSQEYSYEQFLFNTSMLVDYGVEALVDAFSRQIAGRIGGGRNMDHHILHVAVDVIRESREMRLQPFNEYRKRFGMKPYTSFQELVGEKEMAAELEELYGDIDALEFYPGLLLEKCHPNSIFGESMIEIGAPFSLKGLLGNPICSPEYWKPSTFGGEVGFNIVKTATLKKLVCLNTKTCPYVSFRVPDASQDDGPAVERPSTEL

Compound: C=C[C@@H]1[C@@H](O)C[C@@H]2[C@]3(CC[C@]4(C)[C@@H]([C@H](C)CCC=C(C)C)CC[C@@]24C)C[C@]13CCC(=O)O
- IC50 [1]: 4.7 µM
- IC50 [2]: 43.7 µM

Compound: C[C@H](CC[C@H](O)C(C)(C)O)[C@H]1CC[C@@]2(C)[C@@H]3CCC4[C@@]5(CC[C@H](O)[C@@]4(C)C(=O)O)C[C@@]35CC[C@]12C (stereo partly specified)
- IC50 [3]: Not Active
- IC50 [4]: Not Active

Compound: COC(=O)C[C@H](c1ccc(O)c(O)c1)c1c(O)cc(O)c2c1O[C@H](c1ccc(O)c(O)c1)[C@H](O)C2
- IC50 [5]: 29.1 µM
- IC50 [6]: 16.3 µM
